In PubChem BioAssay (NCI):
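At the GI50, growth is halved. At the TGI there is no net growth.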

Assays:
Assay in all cases: NCI-60 cell line screen, 384-well format
[1] = test system: K-562 leukemia
[2] = test system: MDA-MB-468 breast
[3] = test system: SK-MEL-28 melanoma
[4] = test system: MOLT-4 leukemia
[5] = test system: MALME-3M melanoma
[6] = test system: CCRF-CEM leukemia
[7] = test system: ACHN renal
[8] = test system: SK-MEL-2 melanoma
[9] = test system: SF-539 CNS
[10] = test system: NCI-H322M lung
[11] = test system: M14 melanoma
[12] = test system: A498 renal
[13] = test system: HCC-2998 colon

CCN(CC)CCNC(=O)c1c(C)[nH]c(/C=C2\C(=O)Nc3ccc(F)cc32)c1C
GI50 [1]: 1350 nM
TGI [1]: 2660 nM
GI50 [2]: 2940 nM
TGI [2]: 5410 nM
GI50 [3]: 1660 nM
TGI [3]: 3130 nM
GI50 [4]: 1030 nM
TGI [4]: 2280 nM
GI50 [5]: 1170 nM
TGI [5]: 2410 nM
GI50 [6]: 1580 nM
TGI [6]: 2940 nM
GI50 [7]: 1300 nM
TGI [7]: 3060 nM
GI50 [8]: 1290 nM
TGI [8]: 2570 nM
GI50 [9]: 1280 nM
TGI [9]: 2610 nM
GI50 [10]: 2410 nM
TGI [10]: 8960 nM
GI50 [11]: 911 nM
TGI [11]: 2150 nM
GI50 [12]: 1540 nM
TGI [12]: 3140 nM
GI50 [13]: 1710 nM
TGI [13]: 3320 nM
